Laboratory results published in patent publication US11708348B2, “Protease inhibitors for treatment of coronavirus infections” (The Scripps Research Institute, priority 2021, dated 2023).
Read-outs that look alike come from different tables or passages of the source.

Test system: SARS-CoV-2 strain USA-WA1/2020
Test: microbe, parasite or virus in culture
Type: cell-based
Details: Severe acute respiratory syndrome coronavirus 2, HeLa-ACE2, 24 h, read-out: EC50, uM (Hela)
[1] = HeLa-ACE2 cells, SARS-CoV-2 infection, 24 h, class symbols

Row | Compound | EC50 [1] [µM] | other results
1 | CC(C)C[C@H](NC(=O)C(=O)Nc1cccc(F)c1F)C(=O)N[C@@H](C[C@@H]1CCNC1=O)C(=O)COc1c(F)c(F)cc(F)c1F [Compound 71, N1-(2,3-difluorophenyl)-N2-((S)-4-methyl-1-oxo-1-(((S)-3-oxo-1-((S)-2-oxopyrrolidin-3-yl)-4-(2,3,5,6-tetrafluorophenoxy)butan-2-yl)amino)pentan-2-yl)oxalamide] | 0.05 to 0.2 | 
2 | CC(C)C[C@H](NC(=O)C(=O)Nc1cc(F)ccc1F)C(=O)N[C@@H](C[C@@H]1CCNC1=O)C(=O)COc1c(F)c(F)cc(F)c1F [Compound 72, Nl-(2,5-difluorophenyl)-N2-((S)-4-methyl-1-oxo-1-(((S)-3-oxo-1-((S)-2-oxopyrrolidin-3-yl)-4-(2,3,5,6-tetrafluorophenoxy)butan-2-yl)amino)pentan-2-yl)oxalamide] | 0.05 to 0.2 | 
3 | CC(C)C[C@H](NC(=O)C(=O)Nc1ccccc1)C(=O)N[C@@H](C[C@@H]1CCNC1=O)C(=O)COP(=O)(c1ccccc1)c1ccccc1 [Compound 73, (S)-3-((S)-4-methyl-2-(2-oxo-2-(phenylamino)acetamido)-pentanamido)-2-oxo-4-((S)-2-oxopyrrolidin-3-yl)butyl-diphenylphosphinate] |  | EC50: 0.05 to 0.2 µM
4 | Cc1cc(F)ccc1NC(=O)C(=O)N[C@@H](CC(C)C)C(=O)N[C@@H](C[C@@H]1CCNC1=O)C(=O)COc1c(F)c(F)cc(F)c1F [Compound 74, N1-(4-fluoro-2-methylphenyl)-N2-((S)-4-methyl-1-oxo-1-(((S)-3-oxo-1-((S)-2-oxopyrrolidin-3-yl)-4-(2,3,5,6-tetrafluorophenoxy)butan-2-yl)amino)pentan-2-yl)oxalamide] | 0.2 to 0.5 | 
5 | CC(C)C[C@H](NC(=O)C(=O)Nc1ccccc1C#N)C(=O)N[C@@H](C[C@@H]1CCNC1=O)C(=O)COc1c(F)c(F)cc(F)c1F [Compound 75, N1-(2-cyanophenyl)-N2-((S)-4-methyl-1-oxo-1-(((S)-3-oxo-1-((S)-2-oxopyrrolidin-3-yl)-4-(2,3,5,6-tetra-fluorophenoxy)butan-2-yl)amino)pentan-2-yl)oxalamide] | 0.05 to 0.2 | 
6 | CC(C)C(F)(F)C(NC(=O)C(=O)Nc1ccccc1F)C(=O)N[C@@H](C[C@@H]1CCNC1=O)C(=O)COc1c(F)c(F)cc(F)c1F (stereo partly drawn) [Compound 76, N1-(3,3-difluoro-4-methyl-1-oxo-1-(((S)-3-oxo-1-((S)-2-oxopyrrolidin-3-yl)-4-(2,3,5,6-tetrafluorophenoxy)butan-2-yl)amino)pentan-2-yl)-N2-(2-fluorophenyl)oxalamide] | 0.05 to 0.2 | 
7 | Cc1cc(Cl)ccc1NC(=O)C(=O)N[C@@H](CC(C)C)C(=O)N[C@@H](C[C@@H]1CCNC1=O)C(=O)COc1c(F)c(F)cc(F)c1F [Compound 77, N1-(4-chloro-2-methylphenyl)-N2-((S)-4-methyl-1-oxo-1-(((S)-3-oxo-1-((S)-2-oxopyrrolidin-3-yl)-4-(2,3,5,6-tetrafluorophenoxy)butan-2-yl)amino)pentan-2-yl)oxalamide] | < 0.05 | 
8 | CC(C)C[C@H](NC(=O)C(=O)Nc1ccc(F)cc1F)C(=O)N[C@@H](C[C@@H]1CCNC1=O)C(=O)COc1c(F)c(F)cc(F)c1F [Compound 78, N1-(2,4-difluorophenyl)-N2-((S)-4-methyl-1-oxo-1-(((S)-3-oxo-1-((S)-2-oxopyrrolidin-3-yl)-4-(2,3,5,6-tetrafluorophenoxy)butan-2-yl)amino)pentan-2-yl)oxalamide] | < 0.05 | 
9 | COc1ccc(F)cc1NC(=O)C(=O)N[C@@H](CC(C)C)C(=O)N[C@@H](C[C@@H]1CCNC1=O)C(=O)COc1c(F)c(F)cc(F)c1F [Compound 79, N1-(5-fluoro-2-methoxyphenyl)-N2-((S)-4-methyl-1-oxo-1-(((S)-3-oxo-1-((S)-2-oxopyrrolidin-3-yl)-4-(2,3,5,6-tetrafluorophenoxy)butan-2-yl)amino)pentan-2-yl)oxalamide] | 0.05 to 0.2 | 
10 | CC(C)C[C@H](NC(=O)C(=O)Nc1ccccc1F)C(=O)N[C@@H](CC1CCCCC1)C(=O)COc1c(F)c(F)cc(F)c1F [Compound 80, N1-((S)-1-(((S)-1-cyclohexyl-3-oxo-4-(2,3,5,6-tetrafluorophenoxy)butan-2-yl)amino)-4-methyl-1-oxopentan-2-yl)-N2-(2-fluorophenyl)oxalamide] |  | EC50 (HeLa-ACE2 cells, SARS-CoV-2 infection, 24 h, cells given as a bound): > 1 µM
11 | CC(C)C[C@H](NC(=O)C(=O)NCC1CCCC1)C(=O)N[C@@H](C[C@@H]1CCNC1=O)C(=O)COc1c(F)c(F)cc(F)c1F [Compound 81, N^1-(cyclopentylmethyl)-N^2—((S)-4-methyl-1-oxo-1-(((S)-3-oxo-1-((S)-2-oxopyrrolidin-3-yl)-4-(2,3,5,6-tetrafluorophenoxy)butan-2-yl)amino)pentan-2-yl)oxalamide] | 0.05 to 0.2 | 
12 | Cc1cccc(F)c1NC(=O)C(=O)N[C@@H](CC(C)C)C(=O)N[C@@H](C[C@@H]1CCNC1=O)C(=O)COc1c(F)c(F)cc(F)c1F [Compound 82, N1-(2-fluoro-6-methylphenyl)-N2-((S)-4-methyl-1-oxo-1-(((S)-3-oxo-1-((S)-2-oxopyrrolidin-3-yl)-4-(2,3,5,6-tetrafluorophenoxy)butan-2-yl)amino)pentan-2-yl)oxalamide] | < 0.05 | 
13 | Cc1ccc(F)cc1NC(=O)C(=O)N[C@@H](CC(C)C)C(=O)N[C@@H](C[C@@H]1CCNC1=O)C(=O)COc1c(F)c(F)cc(F)c1F [Compound 83, Nl-(5-fluoro-2-methylphenyl)-N2-((S)-4-methyl-1-oxo-1-(((S)-3-oxo-1-((S)-2-oxopyrrolidin-3-yl)-4-(2,3,5,6-tetrafluorophenoxy)butan-2-yl)amino)pentan-2-yl)oxalamide] | < 0.05 | 
14 | CC(C)C[C@H](NC(=O)Nc1ccccc1F)C(=O)N[C@@H](C[C@@H]1CCNC1=O)C(=O)COc1c(F)c(F)cc(F)c1F [Compound 84, (S)-2-(3-(2-fluorophenyl)ureido)-4-methyl-N-((S)-3-oxo-1-((S)-2-oxopyrrolidin-3-yl)-4-(2,3,5,6-tetrafluorophenoxy)butan-2-yl)pentanamide] | 0.05 to 0.2 | 
15 | CC(C)C[C@H](NC(=O)C(=O)Nc1ccccc1C(C)C)C(=O)N[C@@H](C[C@@H]1CCNC1=O)C(=O)COc1c(F)c(F)cc(F)c1F [Compound 86, Nl-(2-isopropylphenyl)-N2-((S)-4-methyl-1-oxo-1-(((S)-3-oxo-1-((S)-2-oxopyrrolidin-3-yl)-4-(2,3,5,6-tetrafluorophenoxy)butan-2-yl)amino)pentan-2-yl)oxalamide] | < 0.05 | 
16 | CC(C)C[C@H](NC(=O)C(=O)Nc1cc(F)c(Br)c(F)c1)C(=O)N[C@@H](C[C@@H]1CCNC1=O)C(=O)COc1c(F)c(F)cc(F)c1F [Compound 87, N1-(4-bromo-3,5-difluorophenyl)-N2-((S)-4-methyl-1-oxo-1-(((S)-3-oxo-1-((S)-2-oxopyrrolidin-3-yl)-4-(2,3,5,6-tetrafluorophenoxy)butan-2-yl)amino)pentan-2-yl)oxalamide] | 0.05 to 0.2 | 
17 | O=C(Nc1ccccc1Cl)C(=O)N[C@@H](CC1CCC(F)(F)CC1)C(=O)N[C@@H](C[C@@H]1CCNC1=O)C(=O)COc1c(F)c(F)cc(F)c1F [Compound 88, N1-(2-chlorophenyl)-N2-((S)-3-(4,4-difluorocyclohexyl)-1-oxo-1-(((S)-3-oxo-l-((S)-2-oxopyrrolidin-3-yl)-4-(2,3,5,6-tetrafluorophenoxy)butan-2-yl)amino)propan-2-yl)oxalamide] | 0.05 to 0.2 | 
18 | Cc1c(F)cccc1NC(=O)C(=O)N[C@@H](CC(C)C)C(=O)N[C@@H](C[C@@H]1CCNC1=O)C(=O)COc1c(F)c(F)cc(F)c1F [Compound 89, N1-(3-fluoro-2-methylphenyl)-N2-((S)-4-methyl-1-oxo-1-(((S)-3-oxo-1-((S)-2-oxopyrrolidin-3-yl)-4-(2,3,5,6-tetrafluorophenoxy)butan-2-yl)amino)pentan-2-yl)oxalamide] | < 0.05 | 
19 | CC(C)[C@H](NC(=O)C(=O)Nc1ccccc1F)C(=O)N[C@@H](C[C@@H]1CCNC1=O)C(=O)COc1c(F)c(F)cc(F)c1F [Compound 90, N1-(2-fluorophenyl)-N2-((S)-3-methyl-1-oxo-1-(((S)-3-oxo-1-((S)-2-oxopyrrolidin-3-yl)-4-(2,3,5,6-tetrafluorophenoxy)butan-2-yl)amino)butan-2-yl)oxalamide] | 0.05 to 0.2 | 
20 | O=C(Nc1ccccc1F)C(=O)N1CCC[C@H]1C(=O)N[C@@H](C[C@@H]1CCNC1=O)C(=O)COc1c(F)c(F)cc(F)c1F [Compound 91, (S)-1-(2-((2-fluorophenyl)amino)-2-oxoacetyl)-N-((S)-3-oxo-1-((S)-2-oxopyrrolidin-3-yl)-4-(2,3,5,6-tetrafluorophenoxy)butan-2-yl)pyrrolidine-2-carboxamide] | 0.5 to 1 | 
21 | O=C(Nc1ccccc1Cl)C(=O)N[C@@H](CC1CCCCC1)C(=O)N[C@@H](C[C@@H]1CCNC1=O)C(=O)COc1c(F)c(F)cc(F)c1F [Compound 92, N1-(2-chlorophenyl)-N2-((S)-3-cyclohexyl-1-oxo-1-(((S)-3-oxo-1-((S)-2-oxopyrrolidin-3-yl)-4-(2,3,5,6-tetrafluorophenoxy)butan-2-yl)amino)propan-2-yl)oxalamide] | < 0.05 | 
22 | Cc1ccccc1NC(=O)C(=O)N[C@@H](CC1CCCCC1)C(=O)N[C@@H](C[C@@H]1CCNC1=O)C(=O)COc1c(F)c(F)cc(F)c1F [Compound 93, N1-((S)-3-cyclohexyl-1-oxo-1-(((S)-3-oxo-1-((S)-2-oxopyrrolidin-3-yl)-4-(2,3,5,6-tetrafluorophenoxy)butan-2-yl)amino)propan-2-yl)-N2-(o-tolyl)oxalamide] | < 0.05 | 
23 | CC(C)C[C@H](NC(=O)C(=O)NC1CCCC(F)(F)C1)C(=O)N[C@@H](C[C@@H]1CCNC1=O)C(=O)COc1c(F)c(F)cc(F)c1F (stereo partly drawn) [Compound 94, Nl-(3,3-difluorocyclohexyl)-N2-((S)-4-methyl-1-oxo-1-(((S)-3-oxo-1-((S)-2-oxopyrrolidin-3-yl)-4-(2,3,5,6-tetrafluorophenoxy)butan-2-yl)amino)pentan-2-yl)oxalamide] | 0.05 to 0.2 | 
